Consider 35 compounds from paper PMC8564858, “Flavonoid-based inhibitors of the Phi-class glutathione transferase from black-grass to combat multiple herbicide resistance” (Organic & Biomolecular Chemistry, 2021).

The test system of assay [1] is AmGSTF1. As to the kind of experiment: CDNB assay: inhibition of AmGSTF1-catalysed glutathionylation of CDNB. It is filed as biochemical, Alopecurus myosuroides. The following applies: for CDNB Assay % Inhibition: three replicate measurements.
Assay [2] relates to AmGSTF1. Briefly: Thermal shift assay. The following applies: difference in melting temperature compared to no ligand. In kind it is binding, Alopecurus myosuroides.

For the compound `COc1cc(OC)c2c(=O)cc(-c3ccncc3)oc2c1` [18m], the “CDNB Assay % Inhibition” value with AmGSTF1 [1] (10 µM compound) is 10%; with AmGSTF1 [1] (100 µM compound), 50%. Also, the “Thermal Shift Assay ∆Tm” value in the assay with AmGSTF1 [2] (1 µM) is given as 0.23; in the assay on AmGSTF1 [2] (10 µM) it was 0.27; in the assay on AmGSTF1 [2] (100 µM), 0.23.

On to `O=c1cc(-c2ccccc2)oc2cc(OCc3cccnc3)cc(O)c12` [compound 35], for which, in the assay with AmGSTF1 [1] (100 µM compound), the “CDNB Assay % Inhibition” value is 87%.

Consider `O=c1cc(-c2ccccc2)oc2ccccc12` [compound 7, reference compound], for which the “CDNB Assay % Inhibition” value in the assay with AmGSTF1 [1] (100 µM compound) is listed as 14%. Moreover, the “Thermal Shift Assay ∆Tm” value with AmGSTF1 [2] (1 µM) is reported as 0.3; with AmGSTF1 [2] (10 µM), 0.0; in the assay on AmGSTF1 [2] (100 µM), -0.2.

Consider `COc1cc(OC)c2c(=O)cc(-c3cnnc(C)c3)oc2c1` [18n], for which the “CDNB Assay % Inhibition” value in the assay on AmGSTF1 [1] (10 µM compound) is reported as 8%; with AmGSTF1 [1] (100 µM compound), 64%. Moreover, the “Thermal Shift Assay ∆Tm” value in the assay with AmGSTF1 [2] (1 µM) was -0.07; with AmGSTF1 [2] (10 µM), -0.13; in the assay with AmGSTF1 [2] (100 µM), -0.33.

On to `COc1cc(OC)c2c(=O)cc(-c3nnc(C)o3)oc2c1` [compound 19], for which the “CDNB Assay % Inhibition” value turned out to be 8% in the assay on AmGSTF1 [1] (10 µM compound) and 53% with AmGSTF1 [1] (100 µM compound). Also, the “Thermal Shift Assay ∆Tm” value is on record as -0.10 with AmGSTF1 [2] (1 µM), -0.17 in the assay with AmGSTF1 [2] (10 µM) and -0.27 in the assay on AmGSTF1 [2] (100 µM).

For `COc1cc(OC)c2c(=O)cc(C(=O)Nc3ccccc3)oc2c1` [16a], the “CDNB Assay % Inhibition” value was found to be 26% with AmGSTF1 [1] (10 µM compound) and 49% with AmGSTF1 [1] (100 µM compound). The “Thermal Shift Assay ∆Tm” value with AmGSTF1 [2] (1 µM) came to 0.17; with AmGSTF1 [2] (10 µM) it was 0.03; with AmGSTF1 [2] (100 µM) it was 0.03.

As to `COc1cc(OC)c2c(=O)cc(N3CCN(C)CC3)oc2c1` [17a], the “CDNB Assay % Inhibition” value in the assay on AmGSTF1 [1] (100 µM compound) is 16%. The entries for the “Thermal Shift Assay ∆Tm” value in the assay on AmGSTF1 [2] (1 µM), in the assay on AmGSTF1 [2] (10 µM) and in the assay on AmGSTF1 [2] (100 µM) were 0, -0.03 and 0.20, respectively.

Regarding `O=C1c2c(O)cc(O)cc2O[C@H](c2ccc(O)c(O)c2)[C@H]1O` [compound 8, reference compound], in the assay on AmGSTF1 [1] (100 µM compound), the “CDNB Assay % Inhibition” value is on record as 18%.

In the case of `COc1cc(OC(C(=O)O)C(C)C)c2c(=O)cc(-c3ccccc3)oc2c1` (centres unmarked) [compound 47], the “CDNB Assay % Inhibition” value in the assay on AmGSTF1 [1] (1 µM compound) turned out to be 7%.

Turning to `COc1cc(OC)c2c(=O)cc(-c3cccc(-c4ccccc4)c3)oc2c1` [18d], the “CDNB Assay % Inhibition” value in the assay on AmGSTF1 [1] (10 µM compound) is recorded as 12%; in the assay with AmGSTF1 [1] (100 µM compound), 87%. The “Thermal Shift Assay ∆Tm” value in the assay with AmGSTF1 [2] (1 µM) was 0.13; in the assay on AmGSTF1 [2] (10 µM), 0.13; in the assay on AmGSTF1 [2] (100 µM) it was -0.1.

Take `CCCCCC(Oc1cc(OC)cc2oc(-c3ccccc3)cc(=O)c12)C(=O)O` (centres unmarked) [compound 42]: the “CDNB Assay % Inhibition” value amounted to 4% in the assay with AmGSTF1 [1] (1 µM compound) and 69% with AmGSTF1 [1] (10 µM compound). Moreover, the results for the “Thermal Shift Assay ∆Tm” value in the assay on AmGSTF1 [2] (1 µM), with AmGSTF1 [2] (10 µM) and in the assay on AmGSTF1 [2] (100 µM) were 0.17, 0.43 and 2.33, respectively.

With `O=c1cc(-c2ccccc2)oc2cc(O)cc(O)c12` [compound 2, 5,7-dihydroxyflavone, reference compound], the “CDNB Assay % Inhibition” value in the assay on AmGSTF1 [1] (10 µM compound) amounted to 47%; in the assay with AmGSTF1 [1] (100 µM compound), 96%. The “Thermal Shift Assay ∆Tm” value with AmGSTF1 [2] (1 µM) is given as 0.1; in the assay with AmGSTF1 [2] (10 µM), 0.1; in the assay with AmGSTF1 [2] (100 µM) it was 0.2.

As to `COc1cc(OC)c2c(=O)cc(-c3ccc(OC)c(OC)c3)oc2c1` [18g], the “CDNB Assay % Inhibition” value in the assay on AmGSTF1 [1] (10 µM compound) amounted to 11%; in the assay with AmGSTF1 [1] (100 µM compound), 100%. Further, the “Thermal Shift Assay ∆Tm” value is 0.30 in the assay with AmGSTF1 [2] (1 µM), -0.03 in the assay with AmGSTF1 [2] (10 µM) and 0.17 in the assay with AmGSTF1 [2] (100 µM).

As for `CCCCCCCC(Oc1cc(OC)cc2oc(-c3ccccc3)cc(=O)c12)C(=O)O` (centres unmarked) [compound 43], the results for the “CDNB Assay % Inhibition” value in the assay with AmGSTF1 [1] (1 µM compound) and in the assay on AmGSTF1 [1] (10 µM compound) were 40% and 86%, respectively. In addition, the results for the “Thermal Shift Assay ∆Tm” value in the assay with AmGSTF1 [2] (1 µM), in the assay on AmGSTF1 [2] (10 µM) and in the assay on AmGSTF1 [2] (100 µM) were 0.27, 0.70 and 2.93, respectively.

Consider `COc1cc(OC(Cc2ccccc2)C(=O)O)c2c(=O)cc(-c3ccccc3)oc2c1` (centres unmarked) [compound 50], for which, in the assay on AmGSTF1 [1] (1 µM compound), the “CDNB Assay % Inhibition” value is recorded as 8%.

With `O=c1cc(-c2ccccc2)oc2ccc(O)cc12` [compound 4, reference compound], the “CDNB Assay % Inhibition” value in the assay with AmGSTF1 [1] (100 µM compound) amounted to 61%. Further, the figures for the “Thermal Shift Assay ∆Tm” value in the assay on AmGSTF1 [2] (1 µM), in the assay with AmGSTF1 [2] (10 µM) and with AmGSTF1 [2] (100 µM) were 0.4, 0.0 and -0.2, respectively.

For `CCCCCOc1cc(O)c2c(=O)cc(-c3ccccc3)oc2c1` [compound 33], the “CDNB Assay % Inhibition” value in the assay with AmGSTF1 [1] (100 µM compound) came out at 87%.

Turning to `O=c1cc(-c2ccccc2)oc2cc(OCC3CCCC3)cc(O)c12` [compound 32], in the assay on AmGSTF1 [1] (100 µM compound), the “CDNB Assay % Inhibition” value came to 80%.

On to `O=c1cc(-c2ccccc2)oc2cc(OCC3CCCCO3)cc(O)c12` (centres unmarked) [compound 34], for which, in the assay on AmGSTF1 [1] (100 µM compound), the “CDNB Assay % Inhibition” value is given as 28%.

`COc1cc(OC(C(=O)O)c2ccc(Cl)cc2)c2c(=O)cc(-c3ccccc3)oc2c1` (centres unmarked) [compound 49]: in the assay on AmGSTF1 [1] (1 µM compound), the “CDNB Assay % Inhibition” value is on record as 27%.

With `O=c1cc(-c2ccccc2)oc2cc(OCc3ccccc3)cc(O)c12` [compound 30], the “CDNB Assay % Inhibition” value in the assay with AmGSTF1 [1] (100 µM compound) is 53%.

Take `Oc1cc(O)c2c(c1)OC(c1ccc(O)c(O)c1)C(O)C2` (centres unmarked) [compound 10, catechin, reference compound]: the “Inhibitory activity toward AmGSTF1 in the CDNB assay (in words)” value in the assay on AmGSTF1 [1] was “no inhibition”. Further, the “CDNB Assay % Inhibition” value in the assay on AmGSTF1 [1] (100 µM compound) came to 0%.

For the compound `CC(=O)Oc1cc(O)c2c(=O)cc(-c3ccccc3)oc2c1` [compound 28], the “CDNB Assay % Inhibition” value in the assay on AmGSTF1 [1] (100 µM compound) is listed as 10%.

Take `CCCCCC(=O)Oc1cc(O)c2c(=O)cc(-c3ccccc3)oc2c1` [compound 29]: the “CDNB Assay % Inhibition” value with AmGSTF1 [1] (100 µM compound) is on record as 6%.

`COc1cc(OC(C(=O)O)c2ccccc2)c2c(=O)cc(-c3ccccc3)oc2c1` (centres unmarked) [compound 48]: the “CDNB Assay % Inhibition” value in the assay with AmGSTF1 [1] (1 µM compound) amounted to 16%.

As for `O=c1cc(-c2ccccc2)oc2cc(OCC3CC3)cc(O)c12` [compound 31], the “CDNB Assay % Inhibition” value with AmGSTF1 [1] (100 µM compound) turned out to be 76%.

Regarding `O=c1cc(-c2ccccc2)oc2cc(N3CCOCC3)cc(O)c12` [compound 39], the figures for the “CDNB Assay % Inhibition” value in the assay with AmGSTF1 [1] (10 µM compound) and in the assay on AmGSTF1 [1] (100 µM compound) were 56% and 100%, respectively.

`O=c1c(-c2ccc(O)cc2)coc2cc(O)cc(O)c12` [compound 5, reference compound]: the “CDNB Assay % Inhibition” value with AmGSTF1 [1] (100 µM compound) stood at 47%.

Turning to `O=c1cc(-c2ccccc2)oc2cc(N3CCCCC3)cc(O)c12` [compound 38], the “CDNB Assay % Inhibition” value with AmGSTF1 [1] (100 µM compound) was 88%.

In the case of `COc1ccc(-c2coc3cc(O)ccc3c2=O)cc1` [compound 6, reference compound], the “CDNB Assay % Inhibition” value in the assay on AmGSTF1 [1] (100 µM compound) is listed as 41%.

Turning to `COc1cc(OCC(=O)O)c2c(=O)cc(-c3ccccc3)oc2c1` [compound 40], the “CDNB Assay % Inhibition” value in the assay with AmGSTF1 [1] (1 µM compound) turned out to be 23%.

For the compound `Cc1cc(=O)c2c(O)cc(O)cc2o1` [compound 12], the “Inhibitory activity toward AmGSTF1 in the CDNB assay (in words)” value with AmGSTF1 [1] is reported as “reduced inhibitory activity”. Moreover, in the assay with AmGSTF1 [1] (100 µM compound), the “CDNB Assay % Inhibition” value is listed as 63%.

With `COc1ccc(CNc2cc(O)c3c(=O)cc(-c4ccccc4)oc3c2)cc1` [compound 36], the “CDNB Assay % Inhibition” value with AmGSTF1 [1] (100 µM compound) is on record as 45%.

On to `O=c1cc(-c2ccccc2)oc2cc(N3CCCC3)cc(O)c12` [compound 37], for which, in the assay on AmGSTF1 [1] (100 µM compound), the “CDNB Assay % Inhibition” value is listed as 46%.

For the compound `O=C(Oc1cc(O)c2c(=O)cc(-c3ccccc3)oc2c1)c1ccccc1` [compound 27], the “CDNB Assay % Inhibition” value in the assay on AmGSTF1 [1] (100 µM compound) is given as 4%.
